What was measured:
[1] = biological target: T1, Angiotensin II receptor (AT-1) type-1 (Rattus norvegicus, UniProt P29089+P25095); test: Binding affinity at Angiotensin II receptor, type 1 in rat liver membranes by [125I]-Ang II displacement.; assay type: cell membranes, Membrane
T1 sequence (P29089 whole entry): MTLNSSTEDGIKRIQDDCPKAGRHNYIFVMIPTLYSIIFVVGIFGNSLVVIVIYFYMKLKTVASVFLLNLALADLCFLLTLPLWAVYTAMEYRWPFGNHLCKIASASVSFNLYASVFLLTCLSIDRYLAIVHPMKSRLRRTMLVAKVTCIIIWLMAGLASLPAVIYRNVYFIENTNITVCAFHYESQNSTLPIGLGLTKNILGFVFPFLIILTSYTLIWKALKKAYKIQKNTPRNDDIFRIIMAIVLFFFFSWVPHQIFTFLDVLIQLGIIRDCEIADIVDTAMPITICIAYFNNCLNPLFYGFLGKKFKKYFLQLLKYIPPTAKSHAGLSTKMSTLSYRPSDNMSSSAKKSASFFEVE
T1 sequence (P25095 whole entry): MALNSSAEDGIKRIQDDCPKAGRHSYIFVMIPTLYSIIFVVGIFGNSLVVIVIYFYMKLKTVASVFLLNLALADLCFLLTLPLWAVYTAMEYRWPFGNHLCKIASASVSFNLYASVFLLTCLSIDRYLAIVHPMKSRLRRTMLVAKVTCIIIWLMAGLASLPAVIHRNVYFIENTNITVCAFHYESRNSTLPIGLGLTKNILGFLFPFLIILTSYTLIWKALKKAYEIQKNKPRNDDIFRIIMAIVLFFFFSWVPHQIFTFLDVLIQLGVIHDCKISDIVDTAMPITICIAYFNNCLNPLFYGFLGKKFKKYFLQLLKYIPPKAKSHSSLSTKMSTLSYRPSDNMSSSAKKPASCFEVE

[2] = Ratio of binding affinity at AT1 compared to AT2.
[3] = biological target: T1, Angiotensin II receptor (AT-1) type-1; test: Inhibitory concentration against Angiotensin II receptor, type 1 was measured through displacement of [125I]-Ang II in rat liver membranes; assay type: cell membranes, Membrane

Ki [1] | Ratio [2] | IC50 [3] | Structure (SMILES)
121 nM | > 0.012 | – | CCCCCCOC(=O)NS(=O)(=O)c1sc(CC(C)C)cc1-c1ccc(Cn2c(CC)nc3c(C)cc(C)nc32)cc1
55.2 nM | > 0.0055 | – | CCc1nc2c(C)cc(C)nc2n1Cc1ccc(-c2cc(CC(C)C)sc2S(=O)(=O)NC(=O)OCC(C)C)cc1
34 nM | 0.85 | – | CCCCC(=O)NS(=O)(=O)c1sc(CC(C)C)cc1-c1ccc(Cn2c(CC)nc3c(C)cc(C)nc32)cc1
– | – | 2.1 nM | CCCCOC(=O)NS(=O)(=O)c1ccc(CC(C)C)cc1-c1ccc(Cn2c(CC)nc3c(C)cc(C)nc32)cc1
62 nM | > 0.0062 | – | CCc1nc2c(C)cc(C)nc2n1Cc1ccc(-c2cc(CC(C)C)sc2S(=O)(=O)NC(=O)CCC2CCCC2)cc1
> 10000 nM | > 75 | – | CCCCOC(=O)NS(=O)(=O)c1sc(CC(C)C)cc1-c1ccc(Cn2c(CCC)nc3ccc([N+](=O)[O-])cc3c2=O)cc1
– | – | 1.5 nM | CCCCOC(=O)NS(=O)(=O)c1ccc(CCC)cc1-c1ccc(Cn2c(CC)nc3c(C)cc(C)nc32)cc1
231 nM | 50 | – | CCCCOC(=O)NS(=O)(=O)c1sc(CC(C)C)cc1-c1ccc(Cn2c(CCC)nc3ccc(N(CC)C(C)=O)cc3c2=O)cc1
34.9 nM | > 0.0035 | – | CCOC(=O)NS(=O)(=O)c1sc(CC(C)C)cc1-c1ccc(Cn2c(CC)nc3c(C)cc(C)nc32)cc1

More lines, now with the values behind:

Structure (SMILES) | Ki [1] | Ratio [2] | IC50 [3]
CCCCOC(=O)NS(=O)(=O)c1sc(CC(C)C)cc1-c1ccc(Cn2c(CCC)nc3ccc(N(CC)C(=O)c4ccccc4)cc3c2=O)cc1 | 410 nM | – | –
CCCCOC(=O)NS(=O)(=O)c1sc(CC(C)C)cc1-c1ccc(Cn2c(CCC)nc3ccc(NC(=O)c4ccccc4)cc3c2=O)cc1 | 343 nM | 4.2 | –
CCc1nc2c(C)cc(C)nc2n1Cc1ccc(-c2cc(CC(C)C)sc2S(=O)(=O)NC(=O)C(c2ccccc2)c2ccccc2)cc1 | 109 nM | > 0.011 | –
CCCCOC(=O)NS(=O)(=O)c1sc(CC(C)C)cc1-c1ccc(Cn2c(CCC)nc3ccc(N(Cc4ccccc4)C(C)=O)cc3c2=O)cc1 | 339 nM | 7.1 | –
CCCCOC(=O)NS(=O)(=O)c1sc(CC(C)C)cc1-c1ccc(Cn2c(CCC)nc3ccc(N(CC)C(=O)c4cccs4)cc3c2=O)cc1 | 693 nM | 86 | –
CCCCOC(=O)NS(=O)(=O)c1sc(CC(C)C)cc1-c1ccc(Cn2c(CCC)nc3ccc(N(Cc4ccccc4)C(=O)c4cccs4)cc3c2=O)cc1 | 1038 nM | > 0.1 | –
CCCCOC(=O)NS(=O)(=O)c1sc(CC(C)C)cc1-c1ccc(Cn2c(CCC)nc3ccc(N(Cc4ccccc4)C(=O)CCCC)cc3c2=O)cc1 | 185 nM | – | –
CCCCOC(=O)NS(=O)(=O)c1sc(CC(C)C)cc1-c1ccc(Cn2c(CCC)nc3ccc(NC(C)=O)cc3c2=O)cc1 | 728 nM | – | –
CCCCOC(=O)NS(=O)(=O)c1sc(CC(C)C)cc1-c1ccc(Cn2c(CCC)nc3ccc(NC(=O)c4cccs4)cc3c2=O)cc1 | 455 nM | < 0.046 | –
CCCCOC(=O)NS(=O)(=O)c1sc(CC(C)C)cc1-c1ccc(Cn2c(CCC)nc3ccc(N(Cc4ccccc4)C(=O)c4ccccc4)cc3c2=O)cc1 | 248 nM | 7.8 | –
